Source: patent US20060276465A1, “1,2-di(cyclic) substituted benzene compounds” (Eisai R&D Management Co., Ltd., priority 2003, published 2006)

Assays:
Jurkat cells = assay: Jurkat cell adhesion system (adhesion to immobilized human fibronectin, PMA-stimulated); type: cell-based; details: concentration inhibiting by 50% the PMA-stimulated increase in the number of adhered Jurkat cells on human fibronectin; 45-60 minutes, 37° C.
Description: Evaluation of Compounds in Jurkat Cell Adhesion System
<Immobilization of Human Fibronectin in 96-Well Plate>
Human fibronectin (Becton Dickinson Biosciences) was diluted with phosphate-buffered saline (hereinafter abbreviated as PBS; Sigma) to 0.1-0.01 μg/ml, and the diluted solution was added to a 96-well plate (Becton Dickinson) at 50 μl/well, and allowed to stand overnight at 4° C. On the following day, the supernatant was removed from the plate, and then PBS containing 1% bovine serum albumin (hereinafter abbreviated as BSA; Sigma) was added thereto at 100 μl/well and incubation was performed at 37° C. for 2 hours in a CO2 incubator (Hirasawa).
The supernatant was removed from each plate and Jurkat cells suspended in RPMI-1640 (Sigma) containing 1 mg/ml BSA were added at 80 μl/well for 2.5×10^5 cells/well. The compound diluted to different concentrations with RPMI-1640 containing 1 mg/ml BSA was immediately added at 10 μl/well, and then 100 nM phorbol myristate acetate (hereinafter abbreviated as PMA; Sigma) in RPMI-1640 containing 1 mg/ml BSA was added at 10 μl/well and the plate was incubated in a CO2 incubator at 37° C. for 45-60 minutes. The supernatant was removed from the plate and each well was washed several times with 100 μl/well of RPMI-1640, after which 50 mM citrate buffer (pH 5.0) containing 3.75 mM p-nitrophenol-N-acetyl-β-D-glucosaminide (Sigma) and 0.25% Triton X-100 (Sigma) were added at 60 μl/well, and the mixture was placed in a CO2 incubator and incubated at 37° C. for 45 minutes. After incubation, 50 mM glycine buffer (pH 10.4) containing 5 mM EDTA was added at 90 μl/well, and the absorbance at 405 nm was measured with an EL340 Automated Microplate Reader (BIO-TEK) to determine the adhered cell count. The concentration of each compound which inhibited the increase in the number of adhered cells by the PMA-stimulation by 50% was recorded as the IC50 (μM).

[1] = tested on: human peripheral blood neutrophils; assay: Human peripheral blood neutrophil adhesion system (adhesion to immobilized HUVEC, PMA-stimulated); type: cell-based; details: 0.75 h, concentration inhibiting by 50% the PMA-stimulated increase in the number of adhered BCECF-AM labeled neutrophils on HUVEC immobilized plate, 45 minutes, 37° C.
Description: Evaluation of Compounds in Human Peripheral Blood Neutrophil Adhesion System
<Preparation of Human Peripheral Blood Neutrophils>
To a plastic centrifugation tube containing 100 units of heparin sodium (Shimizu Pharmaceutical) was added 25 ml of fresh blood sampled from a healthy human. After adding and mixing therewith 8 ml of physiological saline (Otsuka Pharmaceutical) containing 6% Dextran (Nacalai), the mixture was allowed to stand at room temperature for 45 minutes for sedimentation of the erythrocytes. The resultant supernatant was transferred to another plastic centrifugation tube and combined with an equivalent volume of phosphate-buffered saline (hereinafter abbreviated as PBS; Sigma), and then centrifuged at 1600 rpm for 7 minutes at room temperature. The obtained hematocyte fraction was suspended in 4 ml of PBS, and the suspension was superposed on 4 ml of Ficoll-Paque™ PLUS (Amersham Biosciences). The resultant bilayer liquid was centrifuged at 2000 rpm for 30 minutes at room temperature, after which the supernatant was removed and the precipitate was suspended in 10 ml of PBS and centrifuged at 1200 rpm for 7 minutes, and the supernatant was removed. The resulting precipitate was suspended in 0.5 ml of PBS again, and then 10 ml of distilled water (Otsuka Pharmaceutical) was added, 0.5 ml of an aqueous solution containing 3 M NaCl was immediately added to restore isotonicity, the mixture was centrifuged at 1200 rpm for 7 minutes, and the obtained precipitate was suspended in PBS containing 1 mg/ml bovine serum albumin (hereinafter abbreviated as BSA; Sigma) again and stored in ice until being used for the experiment.
<Fluorescent Labeling of Human Peripheral Blood Neutrophils>
The obtained neutrophils were suspended in PBS containing 1 mg/ml BSA at 2×10^7 cells/ml. BCECF-AM (Dojin) was added to a final concentration of 5 μM, and the mixture was incubated at 37° C. for 45 minutes. It was then rinsed twice with PBS containing 1 mg/ml BSA by centrifugation, suspended again in PBS containing 1 mg/ml BSA at 5×10^7 cells/ml, and stored in ice until use.
<Preparation of HUVEC Immobilized Plate>
Human umbilical vein endothelial cells (hereinafter abbreviated as HUVEC) were suspended in MCDB131 medium (Chlorella Industries) containing 10% fetal calf serum and 30 μg/ml endothelial cell growth supplement (Becton Dickinson Bioscience). The suspension was added at 7.5×10^3 cells/well to a 96-well plate (Iwaki) immobilized with type I collagen, and cultured for 3 days in a CO2 incubator (Hirasawa). Upon confirming confluency of the cells, the supernatant was discarded, the plate was rinsed twice with PBS, and then PBS containing 0.1% glutaraldehyde (Kanto Kagaku) was added at 100 μl/well and the HUVECs were immobilized for 5 minutes. The supernatant was discarded and the plate was washed twice with PBS, and then PBS was added at 100 μl/well and the mixture was stored at 4° C. until use.
To 6.5 ml of RPMI-1640 medium (Sigma) containing 1 mg/ml of BSA were added 0.5 ml of a suspension of BCECF-AM labeled neutrophils at 5×10^7/ml stored in ice, which was mixed, and the mixture was added at 80 μl/well to a HUVEC immobilized plate. To this plate were immediately added 10 μl/well of a solution of the compound diluted at different concentrations with RPMI-1640 containing 1 mg/ml BSA, and 10 μl/well of 100 nM phorbol myristate acetate (hereinafter abbreviated as PMA; Sigma) in RPMI-1640 containing 1 mg/ml BSA, and the mixture was incubated in a CO2 incubator at 37° C. for 45 minutes. The supernatant was removed from the plate, which was then washed several times with RPMI-1640 at 100 μl/well, and then PBS containing 0.1% NP-40 (Calbiochem) was added thereto at 100 μl/well and the fluorescent intensity was measured with and ARVO™SX 1420 multi label counter (Wallac) to determine the number of adhered cells. […]

IC50 (Jurkat cells): 6.2 µM
IC50 [1]: 11.6 µM
Compound: COCCN1CCN(c2ccccc2C2CCC(C(C)(C)C)CC2)CC1.Cl (centres unmarked) [Example 19, 1-[2-(4-t-Butylcyclohexyl)phenyl]-4-(2-methoxyethyl)piperazine hydrochloride]
